Counter-ions that a name gives are not always drawn.
CCCc1nc2c(N)nc3cc(-c4cccnc4)ccc3c2n1CC1CCNCC1 (as salt: hydrochloride) [Example 410, 1-(Piperidin-4-ylmethyl)-2-propyl-7-(pyridin-3-yl)-1H-imidazo[4,5-c]quinolin-4-amine trihydrochloride] showed a melting point of over 250 °C.
Work on CCc1nc2c(N)nc3ccc(-c4cccnc4)cc3c2n1CC(C)C [Example 17, 2-Ethyl-1-isobutyl-8-(pyridin-3-yl)-1H-imidazo[4,5-c]quinolin-4-amine] yielded a melting point of over 250 °C.
With CCCc1nc2c(N)nc3cc(/C=C/c4cccc(S(N)(=O)=O)c4)ccc3c2n1CC(C)C [Example 440, (E)-3-{2-[4-Amino-1-(2-methylpropyl)-2-propyl-1H-imidazo[4,5-c]quinolin-7-yl]vinyl}benzenesulfonamide] the melting point was over 250 °C.
With CCc1nc2c(N)nc3cc(-c4cccnc4)ccc3c2n1CC1CCNCC1 (as salt: hydrochloride) [Example 405, 2-Ethyl-1-(piperidin-4-ylmethyl)-7-(pyridin-3-yl)-1H-imidazo[4,5-c]quinolin-4-amine trihydrochloride] the melting point was over 250 °C.
Compound CCCc1nc2c(N)nc3cc(CCc4ccc5sc(C)nc5c4)ccc3c2n1CC(C)C (as salt: HCl) [Example 457, 7-[2-(2-Methylbenzothiazol-5-yl)ethyl]-1-(2-methylpropyl)-2-propyl-1H-imidazo[4,5-c]quinolin-4-amine] has a melting point of over 250 °C.

Compared with CC(C)Cn1cnc2c(N)nc3ccc(CCCCc4ccccc4)cc3c21 [Example 426, 1-(2-Methylpropyl)-8-(4-phenylbutyl)-1H-imidazo[4,5-c]quinolin-4-amine], CC(C)Cn1cnc2c(N)nc3cc(-c4cccnc4)ccc3c21 [Example 428, 1-(2-Methylpropyl)-7-(pyridin-3-yl)-1H-imidazo[4,5-c]quinolin-4-amine] is lower in melting point: 176 to 177 °C for the first, 125 °C for the second.

First: CCOCc1nc2c(N)nc3cc(-c4cccnc4)ccc3c2n1C[C@@H]1COC(C)(C)O1 [Example 487, (R)-1-[(2,2-Dimethyl-1,3-dioxolan-4-yl)methyl]-2-ethoxymethyl-7-(pyridin-3-yl)-1H-imidazo[4,5-c]quinolin-4-amine]
Second: CCOCc1nc2c(N)nc3cc(-c4cccnc4)ccc3c2n1CC1COC(C)(C)O1 (stereo not drawn) [Example 159, 1-[(2,2-Dimethyl-1,3-dioxolan-4-yl)methyl]-2-ethoxymethyl-7-(pyridin-3-yl)-1H-imidazo[4,5-c]quinolin-4-amine]
The melting point of the first is lower: 155 to 156 °C for the first, 181 to 182 °C for the second.

First: CCOCc1nc2c(N)nc3cc(-c4ccccc4)ccc3c2n1CCCCS(=O)(=O)N(C)C [Example 366, Dimethyl 4-[4-amino-2-ethoxymethyl-7-phenyl-1H-imidazo[4,5-c]quinolin-1-yl]butane-1-sulfonamide]
Second: CCOCc1nc2c(N)nc3cc(-c4ccccc4)ccc3c2n1CC1CCN(C(=O)C(C)C)CC1 (hydrate or solvate) [Example 194, 2-Ethoxymethyl-1-[(1-isobutyrylpiperidin-4-yl)methyl]-7-phenyl-1H-imidazo[4,5-c]quinolin-4-amine]
The melting point of the first is higher: 207 to 208 °C for the first, 156 to 158 °C for the second.

Compared with COCc1nc2c(N)nc3cc(-c4cnc(OC)nc4)ccc3c2n1CC(C)(C)O [Example 397, 1-[4-Amino-2-methoxymethyl-7-(2-methoxypyrimidin-5-yl)-1H-imidazo[4,5-c]quinolin-1-yl]-2-methylpropan-2-ol], COCCc1nc2c(N)nc3cc(-c4cncc(CO)c4)ccc3c2n1CC(C)(C)O [Example 141, 1-[4-Amino-7-(5-hydroxymethylpyridin-3-yl)-2-(2-methoxyethyl)-1H-imidazo[4,5-c]quinolin-1-yl]-2-methylpropan-2-ol] is lower in melting point: 241 to 242 °C for the first, 210 to 211 °C for the second.

Compared with CCCc1nc2c(N)nc3cc(-c4cccnc4)ccc3c2n1CC1CCN(C(=O)C(C)C)CC1 [Example 412, 1-{4-[4-Amino-2-propyl-7-(pyridin-3-yl)-1H-imidazo[4,5-c]quinolin-1-ylmethyl]piperidin-1-yl}-2-methylpropan-1-one], CCOCc1nc2c(N)nc3cc(-c4cccnc4)ccc3c2n1CC(C)C [Example 113, 2-Ethoxymethyl-1-(2-methylpropyl)-7-(pyridin-3-yl)-1H-imidazo[4,5-c]quinolin-4-amine] is lower in melting point: 248 to 249 °C for the first, 179.5 to 181.5 °C for the second.

Compared with CCOCc1nc2c(N)nc3cc(-c4cccnc4)ccc3c2n1C[C@H](O)CO [Example 490, (S)-3-[4-Amino-2-ethoxymethyl-7-(pyridin-3-yl)-1H-imidazo[4,5-c]quinolin-1-yl]propane-1,2-diol], CCc1nc2c(N)nc3cc(-c4cccnc4)ccc3c2n1CC(C)(C)O [Example 142, 1-[4-Amino-2-ethyl-7-(pyridin-3-yl)-1H-imidazo[4,5-c]quinolin-1-yl]-2-methylpropan-2-ol] is higher in melting point: 203 to 204 °C for the first, 245 to 247 °C for the second.

First: CCCCc1nc2c(N)nc3cc(-c4cccnc4)ccc3c2n1CCNC(=O)NC(C)C [Example 392, N-{2-[4-Amino-2-butyl-7-(pyridin-3-yl)-1H-imidazo[4,5-c]quinolin-1-yl]ethyl}-N′-(1-methylethyl)urea]
Second: CCCCc1nc2c(N)nc3cc(-c4ccc(C(C)(C)C)cc4)ccc3c2n1CC(C)C [Example 4, 2-Butyl-7-(4-tert-butylphenyl)-1-isobutyl-1H-imidazo[4,5-c]quinolin-4-amine]
The melting point of the first is higher: 240 to 241 °C for the first, 219 to 220 °C for the second.

Compared with CCOCc1nc2c(N)nc3c(-c4cccnc4)cccc3c2n1CC(C)(C)O [Example 485, 1-[4-Amino-2-ethoxymethyl-6-(pyridin-3-yl)-1H-imidazo[4,5-c]quinolin-1-yl]-2-methylpropan-2-ol], CCOCc1nc2c(N)nc3c(-c4cccc(CS(N)(=O)=O)c4)cccc3c2n1CC(C)(C)O [Example 484, {3-[4-Amino-2-ethoxymethyl-1-(2-hydroxy-2-methylpropyl)-1H-imidazo[4,5-c]quinolin-6-yl]phenyl}methanesulfonamide] is higher in melting point: 199 to 201 °C for the first, 234 to 235 °C for the second.

First: CCOCc1nc2c(N)nc3ccc(-c4cncc(CO)c4)cc3c2n1CC(C)(C)O [Example 150, 1-[4-Amino-2-ethoxymethyl-8-(5-hydroxymethylpyridin-3-yl)-1H-imidazo[4,5-c]quinolin-1-yl]-2-methylpropan-2-ol]
Second: COCCc1nc2c(N)nc3ccc(-c4csc5ccccc45)cc3c2n1CCCN1CCCC1=O [Example 190, 1-{3-[4-amino-8-(benzo[b]thiophen-3-yl)-2-(2-methoxyethyl)-1H-imidazo[4,5-c]quinolin-1-yl]propyl}pyrrolidin-2-one]
The melting point of the first is higher: 230 to 232 °C for the first, 202 to 205 °C for the second.

CCCCCCC1(CCCCCC)c2cc(-c3ccc4c(c3)nc(N)c3nc(CCOC)n(CCCN5CCCC5=O)c34)ccc2-c2ccc(-c3ccc4c(c3)nc(N)c3nc(CCOC)n(CCCN5CCCC5=O)c34)cc21 [Example 476, 1-[4-Amino-7-(7-{4-amino-2-(2-methoxyethyl)-1-[3-(pyrrolidin-2-one)propyl]-1H-imidazo[[4,5-c]quinolin-7-yl}-9,9-dihexyl-9H-fluoren-2-yl)-2-(2-methoxyethyl)-1H-imidazo[4,5-c]quinolin-1-yl]propyl}pyrrolidin-2-one] gave a melting point of 251 to 254 °C.
